Laboratory results taken from patent US20100120715A1, “BETA-LACTAMASE INHIBITORS” (priority 2007, published 2010).
Where two headings read alike, the source gives them in different places.

Columns and labels:
Class A ESBL SHV-5 = molecular target: T1, Class A ESBL SHV-5 (Klebsiella pneumoniae, UniProt P0A3M1); assay type: biochemical, E. coli; conditions: nitrocefin 100 μM, PBS pH 7.0, read-out: SHV-5 IC50 Range
T1 construct: made in house; host or cells: E. coli BL21(DE3) for purified enzyme; E. coli cells containing SHV-5 for extracts
T1 sequence (P0A3M1 22-286): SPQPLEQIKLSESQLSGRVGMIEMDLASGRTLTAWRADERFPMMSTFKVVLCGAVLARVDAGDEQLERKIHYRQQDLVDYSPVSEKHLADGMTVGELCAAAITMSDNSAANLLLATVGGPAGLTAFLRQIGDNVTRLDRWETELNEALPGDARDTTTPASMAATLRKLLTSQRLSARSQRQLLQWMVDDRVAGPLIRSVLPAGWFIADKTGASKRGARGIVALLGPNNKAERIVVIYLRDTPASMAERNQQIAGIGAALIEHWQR

Class A ESBL CTXM-15 = molecular target: T2, Class A ESBL CTXM-15 (Escherichia coli, UniProt Q9EXV5); assay: β-lactamase enzyme inhibition (nitrocefin hydrolysis), CTXM-15; assay type: biochemical; conditions: purified enzyme; nitrocefin 100 μM, PBS pH 7.0; read-out: CTXM-15 IC50 Range
T2 construct: made in house; host or cells: E. coli BL21(DE3)
T2 sequence (Q9EXV5 entry or part of it): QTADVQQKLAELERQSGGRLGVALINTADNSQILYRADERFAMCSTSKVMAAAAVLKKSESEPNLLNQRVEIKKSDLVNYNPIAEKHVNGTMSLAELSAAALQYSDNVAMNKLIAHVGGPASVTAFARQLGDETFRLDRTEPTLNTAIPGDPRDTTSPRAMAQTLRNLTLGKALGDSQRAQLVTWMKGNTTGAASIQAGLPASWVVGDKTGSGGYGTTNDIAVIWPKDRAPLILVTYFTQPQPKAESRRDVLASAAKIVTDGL
Procedure, shortened: (§1)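 Native untagged enzymes were expressed in E. coli BL21(DE3) and purified by cation exchange and gel filtration. Compound series (100–0.005 μM in PBS pH 7.0, before addition of an equal enzyme volume) were preincubated with enzyme 10 min at 37°C. Nitrocefin (100 μM final) hydrolysis was read kinetically at 486 nm for 10 min, and IC50 was taken as 50% reduction of initial rate versus no-inhibitor wells.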

Class C P99 AmpC = molecular target: T3, Class C P99 AmpC (Enterobacter cloacae, UniProt P05364); assay type: biochemical; conditions: purified enzyme; nitrocefin 100 μM, PBS pH 7.0; read-out: P99 AmpC IC50 Range
T3 construct: made in house; host or cells: E. coli BL21(DE3)
T3 sequence (P05364 21-381): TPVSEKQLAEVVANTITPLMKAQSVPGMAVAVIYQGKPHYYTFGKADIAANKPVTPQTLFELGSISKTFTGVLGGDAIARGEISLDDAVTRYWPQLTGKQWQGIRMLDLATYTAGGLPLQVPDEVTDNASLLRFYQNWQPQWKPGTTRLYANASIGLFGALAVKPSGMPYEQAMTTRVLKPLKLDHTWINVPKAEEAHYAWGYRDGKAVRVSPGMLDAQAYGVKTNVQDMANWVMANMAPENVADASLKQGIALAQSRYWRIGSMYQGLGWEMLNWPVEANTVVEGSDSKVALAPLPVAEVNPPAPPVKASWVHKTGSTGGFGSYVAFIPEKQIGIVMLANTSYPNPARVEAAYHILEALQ
Procedure, shortened: as §1

[1] = system: E. cloacae expressing the Class C P99+ AmpC; assay: microbe, parasite or virus in culture; assay type: cell-based; conditions: in the presence of fixed 8 μg/mL Ceftazidime
Text: (§2) To determine the ability of test compounds to potentiate the inhibition of the growth of bacterial strains producing beta-lactamase enzymes, classic cell based screening assays were employed. Four bacteria strains producing beta-lactamase enzymes were used: K. pneumoniae expressing the Class A Extended Spectrum Beta-Lactamase (ESBL) CTX-M-15, E. coli expressing the Class A ESBL SHV-5, E. cloacae expressing the Class C P99+, and K. pneumoniae expressing the Class A carbapenemase KPC-2. In order to evaluate the ability of test compounds to inhibit beta-lactamase activity, Applicants used a modification of the broth microdilution assay. The assay was conducted in Cation Adjusted Mueller Hinton Broth (CAMHB, BD # 212322, BD Diagnostic Systems, Sparks, Md.). Bacteria strains were grown for 3-5 hours in CAMBH broth. All four strains were grown in presence of 50 μg/mL ampicillin to ensure resistance is maintained. In the meantime, test compounds were diluted in DMSO to a 0.1 mg/mL stock. The compounds were added to a microtiter plate and were diluted in 2-fold serial dilutions in CAMHB in a final concentration range of 8 μg/mL to 0.015 μg/ml. An overlay of CAMHB containing a cephalosporin was added to the compounds at a final static concentration of 8 μg/ml. […] Each of these compound plates are made in quadruplicate, one for each bacteria strain. In addition to the titration of test compounds the MICs of a panel of cephalosporins is also tested to ensure the strains are behaving consistently from test to test. Once the test compound and cephalosporin are added the plates can be inoculated. Inocula are conducted according to CLSI broth microdilution method. After inoculation the plates are incubated for 16-20 hours at 37° C. then the Minimal Inhibitory Concentration (MIC) of the test compound is determined visually.

[2] = system: K. pneumoniae expressing the Class A ESBL CTX-M-15; assay: microbe, parasite or virus in culture; assay type: cell-based; conditions: in the presence of fixed 8 μg/mL Ceftazidime
[3] = system: K. pneumoniae expressing the Class A carbapenemase KPC-2; assay: microbe, parasite or virus in culture; conditions: in the presence of fixed 8 μg/mL Ceftazidime
[4] = molecular target: T4, Class A carbapenemase KPC-2 (Klebsiella pneumoniae, UniProt Q9F663); assay: β-lactamase enzyme inhibition (nitrocefin hydrolysis), KPC-2; assay type: biochemical; conditions: purified enzyme; nitrocefin 100 μM, PBS pH 7.0; read-out: KPC-2 IC50 Range
T4 construct: made in house; host or cells: E. coli BL21(DE3)
T4 sequence (Q9F663 25-293 limits assumed): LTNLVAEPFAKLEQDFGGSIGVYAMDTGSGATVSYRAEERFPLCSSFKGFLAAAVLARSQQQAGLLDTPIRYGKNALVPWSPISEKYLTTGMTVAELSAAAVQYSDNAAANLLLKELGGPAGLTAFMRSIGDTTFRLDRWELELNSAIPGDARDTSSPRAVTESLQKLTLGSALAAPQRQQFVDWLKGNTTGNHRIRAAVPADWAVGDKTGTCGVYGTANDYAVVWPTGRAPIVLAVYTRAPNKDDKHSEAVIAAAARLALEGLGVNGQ
Procedure, shortened: as §1

[5] = system: E. coli expressing the Class A ESBL SHV-5; assay: microbe, parasite or virus in culture; assay type: cell-based; conditions: in the presence of fixed 8 μg/mL Ceftazidime
Text: as §2

[6] = cellular extracts of E. coli containing SHV-5 (Examples 2-30)
[7] = purified beta-lactamase enzyme (Examples 1 and 31-64)

SMILES | IC50 (Class A ESBL SHV-5; [6]) [µM] | IC50 (Class A ESBL CTXM-15) [µM] | IC50 (Class C P99 AmpC) [µM] | MIC of example compound, E. cloacae P99 AmpC + 8 μg/mL CAZ [1] | MIC of example compound, K. pneumoniae CTX-M-15 + 8 μg/mL CAZ [2] | MIC of example compound, K. pneumoniae KPC-2 + 8 μg/mL CAZ [3] | IC50 (Class A ESBL SHV-5; [7]) [µM] | IC50 [4] [µM] | MIC of example compound, E. coli SHV-5 + 8 μg/mL CAZ [5]
O=C(O)c1cccc(C[C@H](NC(=O)C2CCCC2)B(O)O)c1O [Example 15, (1R)-1-Cyclopentanecarbonylamino-(3-carboxy-2-hydroxy)benzyl-methylboronic acid] | 0.1 to 1 | 0.01 to 0.1 | < 0.01 | C (C represents an MIC of <1 μg/mL) | C (C represents an MIC of <1 μg/mL) | C (C represents an MIC of <1 μg/mL) | – | – | –
NCc1cccc(C(=O)N[C@@H](Cc2cccc(C(=O)O)c2O)B(O)O)c1.O=CO [Example 42, (1R)-1-(3-aminomethyl)-benzoylamino-1-(3-carboxy-2-hydroxy)benzyl-methyl boronic acid formate] | – | < 0.01 | < 0.01 | C (C represents an MIC of <1 μg/mL) | – | C (C represents an MIC of <1 μg/mL) | 0.1 to 1 | 0.01 to 0.1 | –
O=C(N[C@@H](Cc1cccc(C(=O)O)c1O)B(O)O)c1ccc(O)cc1 [Example 36, (1R)-1-(4-Hydroxybenzoyl)-amino-1-(3-carboxy-2-hydroxy)benzyl-methylboronic acid] | – | < 0.01 | < 0.01 | C (C represents an MIC of <1 μg/mL) | C (C represents an MIC of <1 μg/mL) | C (C represents an MIC of <1 μg/mL) | 0.1 to 1 | < 0.01 | –
O=C(CCC(=O)c1cccs1)N[C@@H](Cc1cccc(C(=O)O)c1O)B(O)O [Example 5, (1R)-1-(4-Oxo-4-thiophen-2-yl-butyrylamino)-2-(2-hydroxy-3-carboxyphenyl)ethyl-1-boronic acid] | < 0.01 | < 0.01 | < 0.01 | C (C represents an MIC of <1 μg/mL) | C (C represents an MIC of <1 μg/mL) | C (C represents an MIC of <1 μg/mL) | – | – | –
O=C(N[C@@H](Cc1cccc(C(=O)O)c1O)B(O)O)c1cccs1 [Example 11, (1R)-1-(thiophene-2-carbonyl-amino)-2-(2-hydroxy-3-carboxyphenyl)ethyl-1-boronic acid] | 0.01 to 0.1 | < 0.01 | < 0.01 | C (C represents an MIC of <1 μg/mL) | C (C represents an MIC of <1 μg/mL) | C (C represents an MIC of <1 μg/mL) | – | – | –
CC(C)C(=O)N[C@@H](Cc1cccc(C(=O)O)c1O)B(O)O [Example 14, (1R)-1-Isobutyrylamino-1-(3-carboxy-2-hydroxy)benzyl-methylboronic acid] | 0.1 to 1 | 0.01 to 0.1 | < 0.01 | C (C represents an MIC of <1 μg/mL) | C (C represents an MIC of <1 μg/mL) | C (C represents an MIC of <1 μg/mL) | – | – | –
O=C(Cc1cccs1)N[C@@H](Cc1ccc(C(=O)O)cc1O)B(O)O [Example 2, (1R)-1-(2-thiophene-2-yl-acetylamino)-2-(2-hydroxy-4-carboxyphenyl)ethyl-1-boronic acid] | 0.01 to 0.1 | 0.1 to 1 | 0.1 to 1 | A (A represents an MIC >8 μg/mL) | – | – | – | – | –
NCCC(=O)N[C@@H](Cc1cccc(C(=O)O)c1O)B(O)O.O=CO [Example 38, (1R)-1-(3-aminopropanoylamino)-2-(2-hydroxy-3-carboxyphenyl)ethyl-1-boronic acid formate salt] | – | 0.1 to 1 | 0.1 to 1 | – | A (A represents an MIC >8 μg/mL) | C (C represents an MIC of <1 μg/mL) | > 1 | 0.1 to 1 | A (A represents an MIC >8 μg/mL)
O=C(Cc1cc(Br)cs1)N[C@@H](Cc1cccc(C(=O)O)c1O)B(O)O [Example 9, (1R)-1-(2-(4-bromo-thiophen-2-nyl)acetylamino)-2-(2-hydroxy-3-carboxyphenyl)ethyl-1-boronic acid] | < 0.01 | < 0.01 | < 0.01 | – | C (C represents an MIC of <1 μg/mL) | C (C represents an MIC of <1 μg/mL) | – | 0.01 to 0.1 | C (C represents an MIC of <1 μg/mL)
CCCCCC(=O)N[C@@H](Cc1cccc(C(=O)O)c1O)B(O)O [Example 21, (1R)-1-Hexanoylamino-(3-carboxy-2-hydroxy)benzyl-methylboronic acid] | < 0.01 | < 0.01 | < 0.01 | – | C (C represents an MIC of <1 μg/mL) | C (C represents an MIC of <1 μg/mL) | – | < 0.01 | C (C represents an MIC of <1 μg/mL)
COc1cccc(C(=O)N[C@@H](Cc2cccc(C(=O)O)c2O)B(O)O)c1 [Example 29, (1R)-1-(3-methoxybenzoylamino)-2-(2-hydroxy-3-carboxyphenyl)ethyl-1-boronic acid] | 0.01 to 0.1 | < 0.01 | < 0.01 | – | C (C represents an MIC of <1 μg/mL) | C (C represents an MIC of <1 μg/mL) | – | < 0.01 | C (C represents an MIC of <1 μg/mL)
O=C(Cc1cccnc1)N[C@@H](Cc1cccc(C(=O)O)c1O)B(O)O.O=CO [Example 59, (1R)-1-(3-Pyridylacetylamino)-2-(2-hydroxy-3-carboxyphenyl)ethyl-1-boronic acid formate salt] | – | < 0.01 | < 0.01 | – | C (C represents an MIC of <1 μg/mL) | C (C represents an MIC of <1 μg/mL) | < 0.01 | < 0.01 | C (C represents an MIC of <1 μg/mL)
